From patent publication US20230374017A1, “COMPOSITIONS AND METHODS FOR ACTIVATING PYRUVATE KINASE” (The Regents of the University of Michigan, priority 2020, published 2023)

Experiments:
[1] = target: T1, human recombinant PKM2 (Homo sapiens, UniProt P14618); experiment: Pyruvate kinase activity enzyme assay, recombinant enzyme (LDH-coupled, NADH depletion at 340 nm); format: biochemical; conditions: normalized to DMSO-treated PKM2 activity; for EC50: recombinant PKM2 20 nM; for Max Activation / Emax: recombinant PKM2; for Emax: read-out: Max Activation
T1 construct: purchased Sigma SAE0021
Procedure: Pyruvate Kinase Activity Enzyme Assay. Recombinant Enzyme. A continuous, enzyme-coupled assay, which uses lactate dehydrogenase (LDH) and measures the depletion of NADH via absorbance at 340 nm was utilized to determine the pyruvate kinase activity. For AC50 measurements (concentration of activator necessary to achieve half-maximal activation) with ML-265, assays were performed in 96-well format using 200 μL/well assay volume with final concentrations of 20 nM human recombinant PKM2 (Sigma, SAE0021), differing concentrations of ML-265, 0.5 mM PEP, 1 mM ADP, 0.2 mM NADH, and 8 U of lactate dehydrogenase (LDH) in an assay buffer of 50 mM Tris-HCl (pH 7.4), 100 mM KCl, and 5 mM MgCl2. The decrease in absorbance at 340 nm was monitored using a SPECTROstar Omega plate reader (BMG LABTECH Inc., Cary, NC, USA). Initial velocities were calculated with the MARS software. Data were normalized to DMSO (dimethyl sulfoxide)-treated PKM2 activity.

[2] = target: T2, pyruvate kinase activity, 661W cell line (Mus musculus, UniProt P52480); experiment: Pyruvate kinase activity in 661W cell lysates after 2 hours treatment; format: cell-based; conditions: 661W cells, 2 hours incubation, activity normalized to total protein; for Emax: read-out: Max Activation (cell)
T2 construct: endogenous in cells; host or cells: 661W cell line
Procedure: Cell culture. For 661W cell line experiments, media was replaced prior to the start of treatment with DMSO or ML-265. Cells were incubated with DMSO or different concentrations of ML-265 for 2 hours. Cells were lysed and homogenized in RIPA Lysis and Extraction Buffer (Catalog number: 89900, Life Technologies Corporation, Grand Island, NY) with protease inhibitors (Complete-Mini, Roche Diagnostics, Indianapolis, IN) and cellular debris was removed by centrifugation at 10,000 rpm for 10 minutes. Ten microliters of the supernatant was used to assess pyruvate kinase activity, and the activity was normalized to total protein content as previously described.

T1 sequence (P14618 whole entry): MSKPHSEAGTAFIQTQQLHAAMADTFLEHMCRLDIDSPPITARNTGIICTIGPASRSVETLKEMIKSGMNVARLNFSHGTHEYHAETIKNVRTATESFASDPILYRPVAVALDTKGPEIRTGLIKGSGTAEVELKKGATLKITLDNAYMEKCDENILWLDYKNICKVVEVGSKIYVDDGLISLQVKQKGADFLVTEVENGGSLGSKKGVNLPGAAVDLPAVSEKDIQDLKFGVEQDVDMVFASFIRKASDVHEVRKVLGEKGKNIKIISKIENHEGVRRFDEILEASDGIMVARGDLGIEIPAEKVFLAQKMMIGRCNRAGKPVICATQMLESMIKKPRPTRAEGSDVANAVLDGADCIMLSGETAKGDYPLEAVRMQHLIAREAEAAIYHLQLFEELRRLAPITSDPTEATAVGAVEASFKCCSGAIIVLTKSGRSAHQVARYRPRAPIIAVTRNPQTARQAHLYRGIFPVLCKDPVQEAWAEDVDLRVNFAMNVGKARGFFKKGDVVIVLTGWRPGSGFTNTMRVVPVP
T2 sequence (P52480 whole entry): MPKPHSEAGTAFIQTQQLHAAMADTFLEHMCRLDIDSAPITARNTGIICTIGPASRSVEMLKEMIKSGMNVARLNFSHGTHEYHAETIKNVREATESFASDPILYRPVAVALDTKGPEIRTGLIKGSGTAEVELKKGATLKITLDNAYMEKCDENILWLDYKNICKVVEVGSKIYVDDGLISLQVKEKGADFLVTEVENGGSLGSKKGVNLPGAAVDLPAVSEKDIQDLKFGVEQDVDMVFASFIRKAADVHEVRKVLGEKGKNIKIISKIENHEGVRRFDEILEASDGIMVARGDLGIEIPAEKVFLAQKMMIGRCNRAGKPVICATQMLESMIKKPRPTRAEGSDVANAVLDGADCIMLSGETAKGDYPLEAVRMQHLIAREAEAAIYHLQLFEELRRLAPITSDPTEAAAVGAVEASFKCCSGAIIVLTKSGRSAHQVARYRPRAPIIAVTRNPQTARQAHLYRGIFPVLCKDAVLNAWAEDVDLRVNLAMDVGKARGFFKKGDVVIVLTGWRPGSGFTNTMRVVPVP

| Compound | EC50 [1] [nM] | Max Activation [1] [%] | EC50 [2] [nM] | Max Activation (cell) [2] [%] | Emax [1] [%] | Emax [2] [%] |
| --- | --- | --- | --- | --- | --- | --- |
| 3-((1H-pyrazol-3-yl)methyl)-7-41H-pyrazolo[4,3-c]pyridin-4-yl)oxy)-5-methyl-3,5-dihydro-4H-pyridazino[4,5-b]indol-4-one [Example 87] | 50 | 270 | 95 | 317 |  |  |
| CSc1ccc2c3cnn(Cc4ccccc4)c(=O)c3n(C)c2c1 [Example 4, 3-Benzyl-5-methyl-7-(methylthio)-3,5-dihydro-4H-pyridazino[4,5-b]indol-4-one] | 527 |  | 22 |  | 267 | 309 |
| Cn1c2cc([S+](C)[O-])ccc2c2cnn(Cc3ccccc3)c(=O)c21 (stereo not shown) [Example 5, 3-Benzyl-5-methyl-7-(methylsulfinyl)-3,5-dihydro-4H-pyridazino[4,5-b]indol-4-one] | 192 |  | 13 |  | 226 | 295 |
| Cn1c2cc([S+](C)[O-])ccc2c2cnn(Cc3cccc(N)c3)c(=O)c21 (stereo not shown) [Example 7, 3-(3-Aminobenzyl)-5-methyl-7-(methylsulfinyl)-3,5-dihydro-4H-pyridazino[4,5-b]indol-4-one] | 63 |  | 18 |  | 222 | 355 |
| COc1ccc2c3cnn(Cc4cn5ccccc5n4)c(=O)c3n(C)c2c1 [Example 11, 3-(Imidazo[1,2-a]pyridin-2-ylmethyl)-7-methoxy-5-methyl-3,5-dihydro-4H-pyridazino[4,5-b]indol-4-one] | 110 |  |  |  | 170 |  |
| COc1ccc2c3cnn(Cc4ccc5ncccc5c4)c(=O)c3n(C)c2c1 [Example 12, 7-Methoxy-5-methyl-3-(quinolin-6-ylmethyl)-3,5-dihydro-4H-pyridazino[4,5-b]indol-4-one] | 131 |  |  |  | 123 |  |
| Cn1c2cc(O)ccc2c2cnn(Cc3cccc(N)c3)c(=O)c21 [Example 15, 3-(3-Aminobenzyl)-7-hydroxy-5-methyl-3,5-dihydro-4H-pyridazino[4,5-b]indol-4-one] | 40 |  | 124 |  | 254 | 296 |
| Cc1cc2c3cnn(Cc4ccccc4F)c(=O)c3n(C)c2s1 [Example 16, 6-(2-Fluorobenzyl)-2,8-dimethyl-6,8-dihydro-7H-thieno[3′,2′:4,5]pyrrolo[2,3-d]pyridazin-7-one] | 40 |  | 58 |  | 231 | 279 |
| Cn1c2cc(O)c(F)cc2c2cnn(Cc3cccc(N)c3)c(=O)c21 [Example 21, 3-(3-aminobenzyl)-8-fluoro-7-hydroxy-5-methyl-3,5-dihydro-4H-pyridazino[4,5-b]indol-4-one] | 25 |  | 75 |  | 299 | 273 |
| COc1cc2c(cc1F)c1cnn(Cc3cccc(C)n3)c(=O)c1n2C [Example 52, 8-fluoro-7-methoxy-5-methyl-3-((6-methylpyridin-2-yl)methyl)-3,5-dihydro-4H-pyridazino[4,5-b]indol-4-one] | 97 |  | 66 |  | 225 | 305 |
| COc1cc2c(cc1F)c1cnn(Cc3cccc(N)c3)c(=O)c1n2C [Example 53, 3-(3-aminobenzyl)-8-fluoro-7-methoxy-5-methyl-3,5-dihydro-4H-pyridazino[4,5-b]indol-4-one] | 15 | 199 | 37 | 229 |  |  |
| Cn1c2cc(O)c(F)cc2c2cnn(Cc3cccc(N)c3)c(=O)c21 [Example 54, 3-(3-aminobenzyl)-8-fluoro-7-hydroxy-5-methyl-3,5-dihydro-4H-pyridazino[4,5-b]indol-4-one] | 53 | 299 | 75 | 273 |  |  |
| Cc1cccc(Cn2ncc3c4cc(Oc5ccc6[nH]ncc6n5)ccc4n(C)c3c2=O)n1 [Example 60, 8-((1H-pyrazolo[4,3-b]pyridin-5-yl)oxy)-5-methyl-3-((6-methylpyridin-2-yl)methyl)-3,5-dihydro-4H-pyridazino[4,5-b]indol-4-one] | 67 |  | 54 |  | 243 | 334 |
| Cc1cccc(Cn2ncc3c4ccc(Oc5ncnc6[nH]ncc56)cc4n(C)c3c2=O)n1 [Example 65, 7-((1H-pyrazolo[3,4-d]pyrimidin-4-yl)oxy)-5-methyl-3-((6-methylpyridin-2-yl)methyl)-3,5-dihydro-4H-pyridazino[4,5-b]indol-4-one] | 43 |  | 115 |  | 191 | 262 |
| Cc1cccc(Cn2ncc3c4ccc(Oc5cccc(F)n5)cc4n(C)c3c2=O)n1 [Example 66, 7-((6-fluoropyridin-2-yl)oxy)-5-methyl-3-((6-methylpyridin-2-yl)methyl)-3,5-dihydro-4H-pyridazino[4,5-b]indol-4-one] | 36 |  | 121 |  | 154 | 323 |
| Cc1cccc(Cn2ncc3c4ccc(Oc5cccc(Cl)n5)cc4n(C)c3c2=O)n1 [Example 67, 7-((6-chloropyridin-2-yl)oxy)-5-methyl-3-((6-methylpyridin-2-yl)methyl)-3,5-dihydro-4H-pyridazino[4,5-b]indol-4-one] | 49 |  | 147 |  | 277 | 290 |

Next, values leading:

| EC50 [1] [nM] | Max Activation [1] [%] | EC50 [2] [nM] | Max Activation (cell) [2] [%] | Emax [1] [%] | Emax [2] [%] | Compound |
| --- | --- | --- | --- | --- | --- | --- |
| 117 |  | 15 |  | 212 | 431 | Cc1ccc2c3cnn(Cc4ccccc4)c(=O)c3n(C)c2c1 [Example 1, 3-Benzyl-5,7-dimethyl-3,5-dihydro-4H-pyridazino[4,5-b]indol-4-one] |
| 106 |  |  |  | 90 |  | COc1ccc(Cn2ncc3c4ccc(C)cc4n(C)c3c2=O)cc1 [Example 2, 3-(4-Methoxybenzyl)-5,7-dimethyl-3,5-dihydro-4H-pyridazino[4,5-b]indol-4-one] |
| 428 |  | 28 |  | 193 | 310 | Cc1ccc2c3cnn(Cc4cccc(N)c4)c(=O)c3n(C)c2c1 [Example 3, 3-(3-Aminobenzyl)-5,7-dimethyl-3,5-dihydro-4H-pyridazino[4,5-b]indol-4-one] |
| 117 |  | 25 |  | 271 | 324 | COc1ccc2c3cnn(Cc4cccc(N)c4)c(=O)c3n(C)c2c1 [Example 8, 3-(3-Aminobenzyl)-7-methoxy-5-methyl-3,5-dihydro-4H-pyridazino[4,5-b]indol-4-one] |
| 41 |  | 23 |  | 264 | 292 | Cc1ccc2c3cnn(Cc4cccc(F)c4)c(=O)c3n(C)c2n1 [Example 18, 7-(3-fluorobenzyl)-2,9-dimethyl-7,9-dihydro-8H-pyrido[3′,2′:4,5]pyrrolo[2,3-d]pyridazin-8-one] |
| 15 |  | 67 |  | 199 | 229 | COc1cc2c(cc1F)c1cnn(Cc3cccc(N)c3)c(=O)c1n2C [Example 20, 3-(3-aminobenzyl)-8-fluoro-7-methoxy-5-methyl-3,5-dihydro-4H-pyridazino[4,5-b]indol-4-one] |
| 22 |  | 33 |  | 196 | 288 | COc1cccc2c3cnn(Cc4cccc(N)c4)c(=O)c3n(C)c12 [Example 23, 3-(3-aminobenzyl)-6-methoxy-5-methyl-3,5-dihydro-4H-pyridazino[4,5-b]indol-4-one] |
| 26 |  |  |  | 307 |  | COc1ccc2c(c1)c1cnn(Cc3cccc(N)c3)c(=O)c1n2C [Example 27, 3-(3-aminobenzyl)-8-methoxy-5-methyl-3,5-dihydro-4H-pyridazino[4,5-b]indol-4-one] |
| 82 |  | 134 |  | 221 | 376 | Cc1cccc(Cn2ncc3c4ccc(Oc5ccc6[nH]ncc6n5)cc4n(C)c3c2=O)n1 [Example 62, 7-((1H-pyrazolo[4,3-b]pyridin-5-yl)oxy)-5-methyl-3-((6-methylpyridin-2-yl)methyl)-3,5-dihydro-4H-pyridazino[4,5-b]indol-4-one] |
| 31 |  | 78 |  | 219 | 302 | Cc1cccc(Cn2ncc3c4ccc(Oc5cccc(O)n5)cc4n(C)c3c2=O)n1 [Example 63, 7-((6-hydroxypyridin-2-yl)oxy)-5-methyl-3-((6-methylpyridin-2-yl)methyl)-3,5-dihydro-4H-pyridazino[4,5-b]indol-4-one] |
| 69 |  | 73 |  | 165 | 272 | Cc1cccc(Cn2ncc3c4ccc(Oc5nccc6[nH]ncc56)cc4n(C)c3c2=O)n1 [Example 64, 7-((1H-pyrazolo[4,3-c]pyridin-4-yl)oxy)-5-methyl-3-((6-methylpyridin-2-yl)methyl)-3,5-dihydro-4H-pyridazino[4,5-b]indol-4-one] |
